# Source: ChEMBL document CHEMBL5154870, “Discovery of novel glutaminase 1 allosteric inhibitor with 4-piperidinamine linker and aromatic heterocycles” (Eur J Med Chem, 2022)
# Assays:
# [1] = tested on: HCT-116; assay: Antiproliferative activity against human HCT-116 cells overexpressing GLS1 assessed as inhibition of cell proliferation measured after 72 hrs by MTT assay; format: functional, cell-based; conditions: HCT-116, 72 h
# [2] = Metabolic stability in human liver microsomes assessed as intrinsic clearance at 10 uM by LC-MS/MS analysis; format: ADME, Microsome; conditions: read-out: CLH
# [3] = Metabolic stability in human plasma assessed as parent compound remaining at 1 uM measured after 2 hrs by LC-MS/MS analysis; format: ADME, cell-free; conditions: read-out: Stability
# [4] = tested on: MDA-MB-436; assay: Antiproliferative activity against human MDA-MB-436 cells overexpressing GLS1 assessed as inhibition of cell proliferation measured after 72 hrs by MTT assay; format: functional, cell-based; conditions: MDA-MB-436, 72 h
# [5] = target: T1, Glutaminase kidney isoform, mitochondrial (Homo sapiens, UniProt O94925); assay: Allosteric inhibition of human GLS1 using glutamine as substrate incubated for 60 mins by NADH/NADPH-based absorbance analysis
# T1 sequence (O94925 whole entry): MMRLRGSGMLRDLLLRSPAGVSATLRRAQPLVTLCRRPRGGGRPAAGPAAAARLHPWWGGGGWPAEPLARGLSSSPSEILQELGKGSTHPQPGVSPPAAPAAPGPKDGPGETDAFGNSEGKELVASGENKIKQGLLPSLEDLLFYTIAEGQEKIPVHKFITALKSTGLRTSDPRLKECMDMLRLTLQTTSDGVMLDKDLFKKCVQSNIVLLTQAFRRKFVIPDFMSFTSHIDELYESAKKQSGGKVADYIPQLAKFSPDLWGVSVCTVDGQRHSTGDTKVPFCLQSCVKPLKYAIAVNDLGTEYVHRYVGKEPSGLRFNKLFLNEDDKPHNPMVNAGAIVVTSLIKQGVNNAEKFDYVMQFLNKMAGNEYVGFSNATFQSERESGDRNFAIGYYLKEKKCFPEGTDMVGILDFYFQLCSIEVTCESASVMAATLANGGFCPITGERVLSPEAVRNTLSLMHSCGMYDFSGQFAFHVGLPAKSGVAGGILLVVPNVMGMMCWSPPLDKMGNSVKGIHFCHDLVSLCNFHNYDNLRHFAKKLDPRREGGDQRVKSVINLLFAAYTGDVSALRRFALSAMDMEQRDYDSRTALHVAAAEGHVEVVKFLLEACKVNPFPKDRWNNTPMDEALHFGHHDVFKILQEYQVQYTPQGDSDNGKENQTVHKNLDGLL
# [6] = Metabolic stability in human liver microsomes assessed as half life at 10 uM by LC-MS/MS analysis; format: ADME, Microsome; conditions: liver microsomes
IC50 [1],microsomal CLint at 10 µM [2],"remaining at 2 h, 1 µM [3]",IC50 [4],IC50 [5],half-life at 10 µM [6],Compound
130 nM,23.1 µL/min/mg,79%,510 nM,8.66 nM,1.27 h,O=C(Cc1ccccc1)Nc1nnc(NC2CCN(c3nnc(NC(=O)CCc4cn(Cc5ccc(C(F)(F)F)cc5)nn4)s3)CC2)s1
1240 nM,–,–,1020 nM,17.2 nM,–,O=C(CCc1cn(Cc2ccc(OC(F)(F)F)cc2)nn1)Nc1ccc(N2CCC(Nc3nnc(NC(=O)Cc4ccccn4)s3)CC2)nn1
700 nM,–,–,880 nM,13.6 nM,–,O=C(CCc1cn(Cc2ccc(OC(F)(F)F)cc2)nn1)Nc1ccc(N2CC[C@@H](Nc3nnc(NC(=O)Cc4ccccn4)s3)C2)nn1
410 nM,–,–,620 nM,14.7 nM,–,COc1ccc(Cn2cc(CCC(=O)Nc3nnc(N4CCC(Nc5nnc(NC(=O)Cc6ccccc6)s5)CC4)s3)nn2)cc1
14200 nM,–,–,> 20000 nM,544 nM,–,COc1ccc(Cn2cc(CCC(=O)Nc3nnc(N4CC[C@H](Nc5nnc(NC(=O)Cc6ccccc6)s5)C4)s3)nn2)cc1
3640 nM,–,–,4290 nM,41.8 nM,–,Cc1cccc(C)c1Cn1cc(CCC(=O)Nc2ccc(N3CC[C@@H](Nc4nnc(NC(=O)Cc5ccccn5)s4)C3)nn2)nn1
> 20000 nM,–,–,> 20000 nM,> 1000 nM,–,COc1ccc(Cn2cc(CCC(=O)Nc3ccc(N4CC[C@H](Nc5nnc(NC(=O)Cc6ccccn6)s5)C4)nn3)nn2)cc1
15500 nM,–,–,> 20000 nM,216 nM,–,O=C(Cc1ccccc1)Nc1nnc(N[C@H]2CCN(c3nnc(NC(=O)CCc4cn(-c5ccc(C(F)(F)F)cc5)nn4)s3)C2)s1
3250 nM,–,–,4210 nM,77.5 nM,–,COc1ccc(Cn2cc(CCC(=O)Nc3nnc(N4CCC(Nc5nnc(NC(=O)Cc6ccccc6)s5)CC4)s3)nn2)cc1OC
–,–,–,–,> 10000 nM,–,COc1ccc(Cn2cc(CCC(=O)Nc3ccc(N4CCC(Nc5nnc(N)s5)CC4)nn3)nn2)cc1OC
350 nM,–,–,420 nM,12.4 nM,–,Cc1ccc(Cn2cc(CCC(=O)Nc3nnc(N4CCC(Nc5nnc(NC(=O)Cc6ccccc6)s5)CC4)s3)nn2)cc1
> 20000 nM,–,–,> 20000 nM,> 1000 nM,–,Cc1ccc(Cn2cc(CCC(=O)Nc3ccc(N4CC[C@H](Nc5nnc(NC(=O)Cc6ccccn6)s5)C4)nn3)nn2)cc1
–,–,–,–,> 10000 nM,–,Nc1nnc(NC2CCN(c3ccc(NC(=O)CCc4cn(Cc5ccc(OC(F)(F)F)cc5)nn4)nn3)CC2)s1
490 nM,–,–,840 nM,8.9 nM,–,Cc1ccc(Cn2cc(CCC(=O)Nc3ccc(N4CC[C@@H](Nc5nnc(NC(=O)Cc6ccccn6)s5)C4)nn3)nn2)cc1
–,–,–,–,> 10000 nM,–,COc1ccc(Cn2cc(CCC(=O)Nc3ccc(N4CCC(Nc5nnc(N)s5)CC4)nn3)nn2)cc1
> 20000 nM,–,–,> 20000 nM,> 1000 nM,–,O=C(CCc1cn(Cc2ccc(OC(F)(F)F)cc2)nn1)Nc1ccc(N2CC[C@H](Nc3nnc(NC(=O)Cc4ccccn4)s3)C2)nn1
350 nM,–,–,530 nM,16.6 nM,–,Cc1ccc(Cn2cc(CCC(=O)Nc3nnc(N4CC[C@@H](Nc5nnc(NC(=O)Cc6ccccc6)s5)C4)s3)nn2)cc1
510 nM,–,–,730 nM,10.3 nM,–,O=C(CCc1cn(Cc2ccc(C(F)(F)F)cc2)nn1)Nc1ccc(N2CC[C@@H](Nc3nnc(NC(=O)Cc4ccccn4)s3)C2)nn1
–,–,–,–,> 10000 nM,–,Cc1cccc(C)c1Cn1cc(CCC(=O)Nc2ccc(N3CCC(Nc4nnc(N)s4)CC3)nn2)nn1
850 nM,–,–,2030 nM,17.9 nM,–,O=C(Cc1ccccc1)Nc1nnc(N[C@@H]2CCN(c3nnc(NC(=O)CCc4cn(-c5ccc(C(F)(F)F)cc5)nn4)s3)C2)s1
10100 nM,–,–,> 20000 nM,381 nM,–,O=C(Cc1ccccc1)Nc1nnc(N[C@H]2CCN(c3nnc(NC(=O)CCc4cn(Cc5ccc(OC(F)(F)F)cc5)nn4)s3)C2)s1
